Among the data in PubChem BioAssay AID1259411 (Chemical Carcinogenesis Research Information System (CCRIS), 2018) are carcinogen call values, retold here.

This data set relates to rodent carcinogenicity bioassays, tumor incidence. As to the kind of experiment: CCRIS carcinogenicity studies. A digest of the protocol:
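Archive of carcinogenicity, mutagenicity, tumor promotion and tumor inhibition results drawn from journals, NCI reports and other sources, expert-reviewed; covers 1985-2011 and is no longer updated.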

Each structure is given as a SMILES string. Calls of active or inactive are those of the source. No rule for the calls is given here.

`COC(C)(C)C`: the carcinogen call is, setting by setting: (Species: MOUSE, Strain/Sex: CD-1/FEMALE, Route: INHALATION, Dose: 0, 400, 3000, 8000 PPM IN AIR 6 HR/D 5 D/WK FOR 18 MO (STUDY DURATION: 18 MO), Dose: 0, 400, 3000, 8000 PPM IN AIR 6 HR/D 5 D/WK FOR 18 MO (STUDY DURATION: 18 MO), Tumor Site: Type of Lesion: LIVER: ADENOMA) “active; positive”; (Species: MOUSE, Strain/Sex: CD-1/MALE, Route: INHALATION, Dose: 0, 400, 3000, 8000 PPM IN AIR 6 HR/D 5 D/WK FOR 18 MO (STUDY DURATION: 18 MO), Dose: 0, 400, 3000, 8000 PPM IN AIR 6 HR/D 5 D/WK FOR 18 MO (STUDY DURATION: 18 MO)) “inactive; negative”; (Species: RAT, Strain/Sex: F344/FEMALE, Route: INHALATION, Dose: 0, 400, 3000, 8000 PPM IN AIR 6 HR/D 5 D/WK FOR 24 MO (STUDY DURATION: 24 MO), Dose: 0, 400, 3000, 8000 PPM IN AIR 6 HR/D 5 D/WK FOR 24 MO (STUDY DURATION: 24 MO)) “inactive; negative”; (Species: RAT, Strain/Sex: F344/MALE, Route: INHALATION, Dose: 0, 400, 3000, 8000 PPM IN AIR 6 HR/D 5 D/WK FOR 24 MO (STUDY DURATION: 24 MO), Dose: 0, 400, 3000, 8000 PPM IN AIR 6 HR/D 5 D/WK FOR 24 MO (STUDY DURATION: 24 MO), Tumor Site: Type of Lesion: KIDNEY(RENAL TUBULE): ADENOMA OR CARCINOMA) “active; positive”; (Species: RAT, Strain/Sex: SPRAGUE-DAWLEY/FEMALE, Route: GAVAGE, Dose: 0, 250, 1000 MG/KG BW IN 1 ML OLIVE OIL 1/D 4 D/WK FOR 104 WK (STUDY DURATION: 166 WK), Dose: 0, 250, 1000 MG/KG BW IN 1 ML OLIVE OIL 1/D 4 D/WK FOR 104 WK (STUDY DURATION: 166 WK), Tumor Site: Type of Lesion: HEMOLYMPHORETICULAR SYSTEM: LYMPHOMA OR LEUKEMIA) “active; positive”; (Species: RAT, Strain/Sex: SPRAGUE-DAWLEY/FEMALE, Route: GAVAGE, Dose: 0, 250, 1000 MG/KG BW IN OLIVE OIL 1/D 4D/WK FOR 104 WK (STUDY DURATION: LIFE SPAN), Dose: 0, 250, 1000 MG/KG BW IN OLIVE OIL 1/D 4D/WK FOR 104 WK (STUDY DURATION: LIFE SPAN), Tumor Site: Type of Lesion: MULTIPLE SITES: LYMPHOMA OR LEUKEMIA) “active; positive”. Further, the carcinogen call (Species: RAT, Strain/Sex: SPRAGUE-DAWLEY/MALE, Route: GAVAGE, Dose: 0, 250, 1000 MG/KG BW IN 1 ML OLIVE OIL 1/D 4 D/WK FOR 104 WK (STUDY DURATION: 166 WK), Dose: 0, 250, 1000 MG/KG BW IN 1 ML OLIVE OIL 1/D 4 D/WK FOR 104 WK (STUDY DURATION: 166 WK), Tumor Site: Type of Lesion: TESTES: LEYDIG CELL TUMOR) was “active; positive” and the carcinogen call (Species: RAT, Strain/Sex: SPRAGUE-DAWLEY/MALE, Route: GAVAGE, Dose: 0, 250, 1000 MG/KG BW IN OLIVE OIL 1/D 4D/WK FOR 104 WK (STUDY DURATION: LIFE SPAN), Dose: 0, 250, 1000 MG/KG BW IN OLIVE OIL 1/D 4D/WK FOR 104 WK (STUDY DURATION: LIFE SPAN), Tumor Site: Type of Lesion: TESTES: LEYDIG CELL TUMOR) was “active; positive”.
Regarding `Nc1cccc2ccccc12`, the carcinogen call reads like this: (Species: DOG, Strain/Sex: BEAGLE/FEMALE, Route: ORAL, Dose: 22.0 MG/KG 5/WK) “inactive; negative”; (Species: DOG, Strain/Sex: BEAGLE/MALE, Route: ORAL, Dose: 18.4 MG/KG 5/WK) “inactive; negative”.
Regarding `Nc1ccc2ccccc2c1`, the carcinogen call is, setting by setting: (Species: DOG, Route: ORAL, Tumor Site: Type of Lesion: URINARY BLADDER) “active; positive”; (Species: DOG, Strain/Sex: BEAGLE/FEMALE, Route: ORAL, Dose: 21.3 MG/KG 5/WK, Tumor Site: Type of Lesion: URINARY BLADDER: TRANSITIONAL CELL CARCINOMA) “active; positive”; (Species: DOG, Strain/Sex: BEAGLE/MALE, Route: ORAL, Dose: 18.4 MG/KG 5/WK, Tumor Site: Type of Lesion: URINARY BLADDER: TRANSITIONAL CELL CARCINOMA) “active; positive”; (Species: HAMSTER, Route: ORAL, Tumor Site: Type of Lesion: URINARY BLADDER) “active; positive”; (Species: HUMAN, Route: ORAL, INHALATION, DERMAL, Tumor Site: Type of Lesion: URINARY BLADDER) “active; positive”; (Species: MONKEY, Route: ORAL, Tumor Site: Type of Lesion: URINARY BLADDER) “active; positive”. In addition, under “Species: MOUSE, Route: ORAL, Tumor Site: Type of Lesion: LIVER”, the carcinogen call is “active; positive”.
On to `CC[C@H](OC(C)=O)C(C[C@H](C)N(C)C)(c1ccccc1)c1ccccc1`, for which the carcinogen call was “inactive; negative” (Species: MOUSE, Strain/Sex: B6C3F1/FEMALE, Route: ORAL, Dose: 0, 7.6, 30.1 MG/KG IN DIET FOR DURATION OF STUDY (STUDY DURATION: 24 MO), Dose: 0, 7.6, 30.1 MG/KG IN DIET FOR DURATION OF STUDY (STUDY DURATION: 24 MO)); “inactive; negative” (Species: MOUSE, Strain/Sex: B6C3F1/MALE, Route: ORAL, Dose: 0, 7.6, 30.1 MG/KG IN DIET FOR DURATION OF STUDY (STUDY DURATION: 24 MO), Dose: 0, 7.6, 30.1 MG/KG IN DIET FOR DURATION OF STUDY (STUDY DURATION: 24 MO)); “active; positive” (Species: RAT, Strain/Sex: F344/FEMALE, Route: ORAL, Dose: 0, 5.7, 16.6 MG/KG IN DIET FOR DURATION OF STUDY (STUDY DURATION: 24 MO), Dose: 0, 5.7, 16.6 MG/KG IN DIET FOR DURATION OF STUDY (STUDY DURATION: 24 MO), Tumor Site: Type of Lesion: LIVER: ADENOMA OR CARCINOMA, UTERUS: ENDOMETRIAL STROMAL POLYP); “active; positive” (Species: RAT, Strain/Sex: F344/MALE, Route: ORAL, Dose: 0, 3.1, 9.7 MG/KG IN DIET FOR DURATION OF STUDY (STUDY DURATION: 24 MO), Dose: 0, 3.1, 9.7 MG/KG IN DIET FOR DURATION OF STUDY (STUDY DURATION: 24 MO), Tumor Site: Type of Lesion: LIVER: ADENOMA OR CARCINOMA).
`OC[C@@H](O)[C@@H](O)[C@H](O)[C@H](O)CO[C@H]1O[C@H](CO)[C@@H](O)[C@H](O)[C@H]1O`: the carcinogen call is “inactive; negative” (Species: MOUSE, Strain/Sex: SWISS/FEMALE, Route: ORAL, Dose: 0, 2.5, 5, 10% IN DIET FOR LIFE (PARENTS FED DIETS BEFORE AND AFTER PREGNANCY AND DURING LACTATION) (STUDY DURATION: 104, Dose: 0, 2.5, 5, 10% IN DIET FOR LIFE (PARENTS FED DIETS BEFORE AND AFTER PREGNANCY AND DURING LACTATION) (STUDY DURATION: 104); “inactive; negative” (Species: MOUSE, Strain/Sex: SWISS/MALE, Route: ORAL, Dose: 0, 2.5, 5, 10% IN DIET FOR LIFE (PARENTS FED DIETS BEFORE AND AFTER PREGNANCY AND DURING LACTATION) (STUDY DURATION: 94, Dose: 0, 2.5, 5, 10% IN DIET FOR LIFE (PARENTS FED DIETS BEFORE AND AFTER PREGNANCY AND DURING LACTATION) (STUDY DURATION: 94); “inactive; negative” (Species: RAT, Strain/Sex: WISTAR/FEMALE, Route: ORAL, Dose: 0, 2.5, 5, 10% IN DIET FOR LIFE (PARENTS FED DIETS BEFORE AND AFTER PREGNANCY AND DURING LACTATION) (STUDY DURATION: 130, Dose: 0, 2.5, 5, 10% IN DIET FOR LIFE (PARENTS FED DIETS BEFORE AND AFTER PREGNANCY AND DURING LACTATION) (STUDY DURATION: 130); “inactive; negative” (Species: RAT, Strain/Sex: WISTAR/MALE, Route: ORAL, Dose: 0, 2.5, 5, 10% IN DIET FOR LIFE (PARENTS FED DIETS BEFORE AND AFTER PREGNANCY AND DURING LACTATION) (STUDY DURATION: 128, Dose: 0, 2.5, 5, 10% IN DIET FOR LIFE (PARENTS FED DIETS BEFORE AND AFTER PREGNANCY AND DURING LACTATION) (STUDY DURATION: 128).
In the case of `N#Cc1c(Cl)cccc1Cl`, the carcinogen call is, setting by setting: (Species: MICE, Strain/Sex: SWISS/MALE, Route: INTRAPERITONEAL, Dose: 2 PPM (0.0005MG) 1/3 D FOR 13 TIMES (STUDY DURATION: 375 D), Tumor Site: Type of Lesion: LYMPHATIC SYSTEM: HISTIOCYTIC LYMPHOMA, PLASMA CELL LYMPHOMA, LIVER: HEPATOCELLULAR CARCINOMA) “active; positive”; (Species: MICE, Strain/Sex: SWISS/MALE, Route: SUBCUTANEOUS, Dose: 2 PPM (0.0005MG) 1/3 D FOR 13 TIMES (STUDY DURATION: 375 D), Tumor Site: Type of Lesion: LYMPHATIC SYSTEM: PLASMA CELL LYMPHOMA, LUNG: CARCINOMA, BODY CAVITY: MESOTHELIOMA, LIVER: HEPATOCELLULAR CARCINOMA, Tumor Site: Type of Lesion: LYMPHATIC SYSTEM: PLASMA CELL LYMPHOMA, LUNG: CARCINOMA, BODY CAVITY: MESOTHELIOMA, LIVER: HEPATOCELLULAR CARCINOMA) “active; positive”.
